This passage reports Ki, inhibition and viability results from ChEMBL document CHEMBL3286254, “Structure-guided discovery of 1,3,5 tri-substituted benzenes as potent and selective matriptase inhibitors exhibiting in vivo antitumor efficacy” (Bioorg Med Chem, 2014).

For test [1], the target named is T1, Suppressor of tumorigenicity 14 protein (Homo sapiens, UniProt Q9Y5Y6).
T1 sequence (Q9Y5Y6 whole entry): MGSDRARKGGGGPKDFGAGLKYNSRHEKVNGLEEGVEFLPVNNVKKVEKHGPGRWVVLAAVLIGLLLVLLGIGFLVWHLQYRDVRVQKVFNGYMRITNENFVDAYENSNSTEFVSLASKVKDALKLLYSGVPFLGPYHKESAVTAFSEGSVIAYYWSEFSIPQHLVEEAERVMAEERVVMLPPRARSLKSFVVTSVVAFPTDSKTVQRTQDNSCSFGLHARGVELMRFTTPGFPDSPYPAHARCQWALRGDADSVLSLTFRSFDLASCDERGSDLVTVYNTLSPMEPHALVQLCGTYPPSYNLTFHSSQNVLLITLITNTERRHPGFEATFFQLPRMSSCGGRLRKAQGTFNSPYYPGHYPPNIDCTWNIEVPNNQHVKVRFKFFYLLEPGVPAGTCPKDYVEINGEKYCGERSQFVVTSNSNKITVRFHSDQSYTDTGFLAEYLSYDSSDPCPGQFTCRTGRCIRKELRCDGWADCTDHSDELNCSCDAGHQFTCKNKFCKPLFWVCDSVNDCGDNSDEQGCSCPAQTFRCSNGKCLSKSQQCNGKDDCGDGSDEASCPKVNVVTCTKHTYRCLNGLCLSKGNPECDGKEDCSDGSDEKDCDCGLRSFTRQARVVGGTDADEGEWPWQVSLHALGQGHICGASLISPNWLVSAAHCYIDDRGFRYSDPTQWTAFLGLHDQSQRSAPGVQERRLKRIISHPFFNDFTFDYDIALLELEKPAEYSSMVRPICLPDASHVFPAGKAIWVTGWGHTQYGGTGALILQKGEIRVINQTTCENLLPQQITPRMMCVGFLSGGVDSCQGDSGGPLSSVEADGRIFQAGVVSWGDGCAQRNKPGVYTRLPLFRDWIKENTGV
The test is described as follows: Inhibition of recombinant matriptase (unknown origin) using Boc-Gln-Ala-Arg-7-amido-4-methyl coumarin hydrobromide.

The target of another test is Coagulation factor X (Bos taurus, UniProt P00743). Description: Inhibition of bovine plasma factor 10a using CH3OCO-D-CHA-Gly-Arg-pNA.AcoH substrate.
Sequence of Coagulation factor X (P00743 41-180 limits assumed): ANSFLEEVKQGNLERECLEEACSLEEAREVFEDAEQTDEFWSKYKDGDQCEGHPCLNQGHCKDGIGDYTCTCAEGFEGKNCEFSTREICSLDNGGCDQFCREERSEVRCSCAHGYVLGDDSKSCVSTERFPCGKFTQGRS
Sequence of Coagulation factor X (P00743 234-492 limits assumed): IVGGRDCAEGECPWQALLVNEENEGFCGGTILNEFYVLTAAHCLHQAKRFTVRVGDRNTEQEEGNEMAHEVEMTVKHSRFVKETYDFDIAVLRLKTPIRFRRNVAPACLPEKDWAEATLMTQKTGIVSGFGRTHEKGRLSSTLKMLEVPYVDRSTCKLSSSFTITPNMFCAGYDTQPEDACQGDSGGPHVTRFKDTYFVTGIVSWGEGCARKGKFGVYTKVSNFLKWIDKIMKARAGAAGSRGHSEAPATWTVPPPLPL
The target in another test is Prothrombin (Homo sapiens, UniProt P00734). The test is described as follows: Inhibition of human thrombin using Boc-Gln-Ala-Arg-7-amido-4-methyl coumarin hydrobromide.
A further test concerns the target Trypsin (Homo sapiens, UniProt P07477+P07478+P35030). The test is described as follows: Inhibition of human pancreas Trypsin using Boc-Gln-Ala-Arg-7-amido-4-methyl coumarin hydrobromide. Type of test: protein assay.
The next test concerns the target Plasminogen (Homo sapiens, UniProt P00747). The test is described as follows: Inhibition of human plasmin using pyroGlu-Phe-Lys-pNA.HCl.
The nature of test [2]: Antiinvasion activity in human LNCaP-C42B4 cells assessed as inhibition of FBS-induced cell invaded to lower surface at 10 uM for 3 days by matrigel assay. The note with it: LNCaP-C42B4, 72 h. Type of test: functional.
For test [3], the system named is DU-145. Description: Antiinvasion activity in human DU145 cells assessed as inhibition of FBS-induced cell invaded to lower surface at 10 uM for 3 days by matrigel assay. Type of test: functional. The note with it: DU-145, 72 h.
The subject of test [4] is PC-3. Description: Antiinvasion activity in human PC3 cells assessed as inhibition of FBS-induced cell invaded to lower surface at 10 uM for 3 days by matrigel assay. The class given is functional. The note with it: PC-3, 72 h.
The subject of test [5] is DU-145. Description: Cytotoxicity against human DU145 cells assessed as cell survival at 10 uM after 72 hrs by calcein AM assay. Type of test: functional. The settings on record: DU-145, 72 h, read-out: Activity.
A short description of test [6]: Cytotoxicity against human LNCaP-C42B4 cells assessed as cell survival at 10 uM after 72 hrs by calcein AM assay. The class given is functional. The note with it: LNCaP-C42B4, 72 h, read-out: Activity.
The test system of test [7] is PC-3. The test is described as follows: Cytotoxicity against human PC3 cells assessed as cell survival at 10 uM after 72 hrs by calcein AM assay. The settings on record: PC-3, 72 h, read-out: Activity. Type of test: functional.

Sequence of Plasminogen (P00747 97-580 limits assumed): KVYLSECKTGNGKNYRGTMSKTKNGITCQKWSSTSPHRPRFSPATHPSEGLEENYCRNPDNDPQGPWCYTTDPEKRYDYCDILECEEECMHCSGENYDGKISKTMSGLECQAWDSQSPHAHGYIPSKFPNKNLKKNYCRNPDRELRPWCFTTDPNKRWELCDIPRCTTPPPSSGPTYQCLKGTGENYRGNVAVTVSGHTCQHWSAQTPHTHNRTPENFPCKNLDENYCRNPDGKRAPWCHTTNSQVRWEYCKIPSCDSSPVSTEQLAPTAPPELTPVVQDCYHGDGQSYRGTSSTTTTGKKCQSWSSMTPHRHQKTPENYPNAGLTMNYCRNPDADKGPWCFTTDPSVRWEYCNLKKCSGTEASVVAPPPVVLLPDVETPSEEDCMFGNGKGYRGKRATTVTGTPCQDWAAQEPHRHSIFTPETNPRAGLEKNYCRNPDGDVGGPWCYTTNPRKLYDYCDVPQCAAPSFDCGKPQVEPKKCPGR
Sequence of Plasminogen (P00747 581-810 limits assumed): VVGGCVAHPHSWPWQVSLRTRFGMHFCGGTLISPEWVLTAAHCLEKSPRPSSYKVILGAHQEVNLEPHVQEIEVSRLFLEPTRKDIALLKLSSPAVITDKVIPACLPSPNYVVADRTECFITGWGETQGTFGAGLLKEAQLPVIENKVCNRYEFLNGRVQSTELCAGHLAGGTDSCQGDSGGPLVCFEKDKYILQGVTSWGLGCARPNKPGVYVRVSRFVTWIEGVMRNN

As for `N=C(N)c1ccc(Oc2ccc(Oc3ccc(C(=N)N)cc3)cc2)cc1`, the Ki in test [1] was 200 nM.

Turning to `N=C(N)c1ccc(Oc2cc(Oc3ccc(C(=N)N)cc3)cc(C(N)=O)c2)cc1`, the Ki on Coagulation factor X turned out to be 785 nM; at Prothrombin it was 1060 nM; on Trypsin, 640 nM; in [1], 1620 nM.

Regarding `N=C(N)c1ccc(Oc2cc(N)cc(Oc3ccc(C(=N)N)cc3)c2)cc1`, the Ki is 851 nM at Coagulation factor X, 2820 nM at Prothrombin, 534 nM on Trypsin and 1060 nM in test [1].

With `N=C(N)c1ccc(Oc2cc(Oc3ccc(C(=N)N)cc3)cc(C(=O)NC3CCCCC3)c2)cc1`, the Ki at Plasminogen amounted to 2390 nM; on Coagulation factor X, 190 nM; at Prothrombin, 1640 nM; on Trypsin, 179 nM; in test [1], 592 nM.

As to `N=C(N)c1ccc(Oc2cc(Oc3ccc(C(=N)N)cc3)cc(C(=O)NCC3CCCCC3)c2)cc1`, the Ki at Plasminogen stood at 2160 nM; at Coagulation factor X, 73 nM; on Prothrombin, 2410 nM; at Trypsin, 571 nM; in test [1], 411 nM.

For the molecule `CC1CCC(NC(=O)c2cc(Oc3ccc(C(=N)N)cc3)cc(Oc3ccc(C(=N)N)cc3)c2)CC1` (stereo not drawn), the inhibitory constant (Ki) was 3610 nM on Plasminogen; 282 nM at Coagulation factor X; 744 nM at Prothrombin; 253 nM on Trypsin; 770 nM in test [1].

Regarding `N=C(N)c1ccc(Oc2cc(Oc3ccc(C(=N)N)cc3)cc(C(=O)NC3CCC(O)CC3)c2)cc1` (stereo not drawn), the Ki at Coagulation factor X was 538 nM; on Prothrombin, 1240 nM; in [1], 301 nM.

Regarding `N=C(N)c1ccc(Oc2cc(Oc3ccc(C(=N)N)cc3)cc(C(=O)NC3CCN(CCO)CC3)c2)cc1`, the Ki at Coagulation factor X is 640 nM; on Prothrombin, 1780 nM; in test [1] it was 204 nM.

Take `N=C(N)c1ccc(Oc2cc(Oc3ccc(C(=N)N)cc3)cc(C(=O)NC3CCN(CCCN)CC3)c2)cc1`: the Ki at Coagulation factor X turned out to be 415 nM; at Prothrombin, 1280 nM; on Trypsin, 1035 nM; in test [1], 141 nM.

As for `N=C(N)c1ccc(Oc2cc(Oc3ccc(C(=N)N)cc3)cc(C(=O)N3CCC(CCN)CC3)c2)cc1`, the values for the inhibition at 10 µM (in test [2]; with DU-145 [3]; with PC-3 [4]) were 61%, 62% and 54%, respectively. The Ki stood at 1290 nM on Coagulation factor X, 4060 nM on Prothrombin, 545 nM at Trypsin and 94 nM in test [1]. In addition, the figures for the viability at 10 µM (with DU-145 [5]; in test [6]; in the test with PC-3 [7]) were 100%, 100% and 93%, respectively.

As for `N=C(N)c1ccc(Oc2cc(Oc3ccc(C(=N)N)cc3)cc(C(=O)NCC3CCC(O)CC3)c2)cc1` (stereo not drawn), the inhibition constant (Ki) at Coagulation factor X is 920 nM; at Prothrombin, 2850 nM; at Trypsin, 1550 nM; in test [1], 1180 nM.

In the case of `CCOC(=O)N1CCC(NC(=O)c2cc(Oc3ccc(C(=N)N)cc3)cc(Oc3ccc(C(=N)N)cc3)c2)CC1`, the Ki amounted to 2630 nM on Plasminogen, 1030 nM at Coagulation factor X, 471 nM on Trypsin and 1850 nM in test [1].

In turn, `N=C(N)c1ccc(Oc2cc(Oc3ccc(C(=N)N)cc3)cc(C(=O)N3CCC(C(=O)O)CC3)c2)cc1` displayed a Ki at Trypsin of 718 nM.

Regarding `N=C(N)c1ccc(Oc2cc(Oc3ccc(C(=N)N)cc3)cc(C(=O)N3CCc4ccccc4C3)c2)cc1`, the Ki amounted to 3850 nM on Plasminogen; 273 nM at Coagulation factor X; 1560 nM at Prothrombin; 225 nM at Trypsin; 730 nM in [1].

Take `N=C(N)c1ccc(Oc2cc(Oc3ccc(C(=N)N)cc3)cc(C(=O)Nc3ccc(F)cc3)c2)cc1`: the inhibitory constant (Ki) is 2670 nM on Plasminogen; 1880 nM at Coagulation factor X; 2100 nM on Prothrombin; 1636 nM at Trypsin; 591 nM in [1].

Take `CC1CCC(C(=O)Nc2cc(Oc3ccc(C(=N)N)cc3)cc(Oc3ccc(C(=N)N)cc3)c2)CC1` (stereo not drawn): the inhibition constant (Ki) came out at 1200 nM on Plasminogen; 743 nM at Coagulation factor X; 2340 nM on Prothrombin; 516 nM at Trypsin; 545 nM in [1].

As for `N=C(N)c1ccc(Oc2cc(NC(=O)C3CCN(CCN)CC3)cc(Oc3ccc(C(=N)N)cc3)c2)cc1`, the inhibitory constant (Ki) at Plasminogen was found to be 2410 nM; at Coagulation factor X, 62 nM; at Prothrombin, 2530 nM; at Trypsin, 1338 nM; in test [1], 18 nM.

On to `N=C(N)c1ccc(Oc2cc(NC(=O)C3CCN(CCO)CC3)cc(Oc3ccc(C(=N)N)cc3)c2)cc1`, for which the Ki was determined as 1160 nM on Coagulation factor X, 4200 nM on Prothrombin, 1468 nM at Trypsin and 18 nM in [1].

`N=C(N)c1ccc(Oc2cc(NS(=O)(=O)c3ccc(F)cc3)cc(Oc3ccc(C(=N)N)cc3)c2)cc1`: the Ki at Coagulation factor X stood at 1160 nM; at Prothrombin, 4850 nM; at Trypsin, 1388 nM; in test [1], 1980 nM.

Regarding `N=C(N)c1ccc(Oc2cc(NS(=O)(=O)c3ccc4ccccc4c3)cc(Oc3ccc(C(=N)N)cc3)c2)cc1`, the Ki at Coagulation factor X is 876 nM; at Trypsin, 3000 nM; in test [1] it was 1790 nM.

Take `N=C(N)c1ccc(Oc2cc(Oc3ccc(N)cc3)cc(C(=O)N[C@H]3CC[C@H](N)CC3)c2)cc1`: the values for the Ki (on Trypsin; in test [1]) were greater than 3000 nM and 1130 nM, respectively.

`N=C(N)c1ccc(Oc2cc(Oc3ccc(N)nc3)cc(C(=O)N[C@H]3CC[C@H](N)CC3)c2)cc1`: the Ki was greater than 3000 nM at Trypsin and 2030 nM in test [1].

As to `N=C(N)c1ccc(Oc2cc(Oc3ccc(C(N)=O)cc3)cc(C(=O)N[C@H]3CC[C@H](N)CC3)c2)cc1`, the Ki is 3540 nM at Prothrombin, greater than 3000 nM on Trypsin and 824 nM in test [1].

Regarding `N=C(N)c1ccc(COc2cc(Oc3ccc(C(=N)N)cc3)cc(C(=O)N[C@H]3CC[C@H](N)CC3)c2)cc1`, the Ki at Prothrombin amounted to 2810 nM; at Trypsin, 1868 nM; in [1], 10 nM.

With `N=C(N)c1ccc(Oc2cc(OCc3cccc(C(=N)N)c3)cc(C(=O)N[C@H]3CC[C@H](N)CC3)c2)cc1`, the Ki on Coagulation factor X amounted to 1140 nM; on Prothrombin, 2680 nM; on Trypsin, 1541 nM; in test [1], 6 nM.

As to `N=C(N)c1ccc(Oc2cc(Oc3ccc(NC(=O)CCN)cc3)cc(C(=O)N[C@H]3CC[C@H](N)CC3)c2)cc1`, the Ki on Coagulation factor X is 3580 nM; at Prothrombin, 3250 nM; at Trypsin it was greater than 3000 nM; in test [1] it was 116 nM.

As to `N=C(N)c1ccc(Oc2cc(OCc3ccc(Br)nc3)cc(C(=O)N[C@H]3CC[C@H](N)CC3)c2)cc1`, the Ki at Coagulation factor X was 3680 nM; at Prothrombin it was 3980 nM; on Trypsin it was greater than 3000 nM; in test [1], 793 nM.

As for `N=C(N)c1ccc(Oc2cc(OCc3ccc(Cl)cc3)cc(C(=O)N[C@H]3CC[C@H](N)CC3)c2)cc1`, the Ki in test [1] is 470 nM.

As to `NCc1ccc(Oc2cc(Oc3ccc(CN)cc3)cc(C(=O)N[C@H]3CC[C@H](N)CC3)c2)cc1`, the Ki on Trypsin came to 3850 nM; in test [1], 1700 nM.

In the case of `N=C(N)c1ccc(COc2cc(OCc3ccc(C(=N)N)cc3)cc(C(=O)N[C@H]3CC[C@H](N)CC3)c2)cc1`, the Ki at Coagulation factor X came out at 1560 nM; at Prothrombin it was 1640 nM; at Trypsin, 1022 nM; in test [1], 23 nM.

For `N=C(N)c1cccc(COc2cc(OCc3cccc(C(=N)N)c3)cc(C(=O)N[C@H]3CC[C@H](N)CC3)c2)c1`, the Ki was 157 nM on Coagulation factor X, 1290 nM on Prothrombin, 901 nM at Trypsin and 3 nM in test [1].

As to `N=C(N)c1cccc(C[C@@H](NS(=O)(=O)c2cccc(C3CCC(N)=NC3)c2)C(=O)N2CCC(CCN)CC2)c1` (stereo partly drawn), in test [1], the inhibitory constant (Ki) worked out at 0.08 nM.

The Ki is a dissociation constant, usually derived from enzyme kinetics or from competition with a known ligand. As usually defined, the inhibition is how much of the control response was suppressed.
